Here are results for 5 compounds from publication PMC10651654 (Clinical and Translational Science, 2023).

In brackets after ≈: the same amount, converted by molar mass. Read-outs that look alike come from different tables or passages of the source. Where only a bound is given, the exact number is not on record here.

The nature of data set [1]: PBPK drug-drug interaction simulations. Also on record: species or system human.
Data set [2] concerns CYP3A4. The note with it: ref GastroPlus user manual[10], cited from earlier work.
Data set [3] concerns CYP2B6. The note with it: source cell empty, row above: ref GastroPlus user manual[10]; cited from earlier work.
A short description of data set [4]: PBPK model. The note with it: human, oral, 600 mg.
For data set [5] the following is noted: cited from earlier work.
The nature of data set [6]: Apparent permeability in Caco-2 cells. The format is in vitro ADME. The note with it: human. Background: Caco-2 monolayers are a common model of the intestinal barrier.
For data set [7], the target named is T1, CYP3A4 (Homo sapiens, UniProt P08684). The data set can be described thus: biochemical. The format is in vitro ADME.
For data set [8], the target named is CYP2C9 (Homo sapiens, UniProt P11712). The data set can be described thus: CYP2C9 inhibition. In kind it is in vitro ADME.
In data set [9] the target is T2, OATP1B1 (Homo sapiens, UniProt Q9Y6L6).
T2 sequence (Q9Y6L6 1-691): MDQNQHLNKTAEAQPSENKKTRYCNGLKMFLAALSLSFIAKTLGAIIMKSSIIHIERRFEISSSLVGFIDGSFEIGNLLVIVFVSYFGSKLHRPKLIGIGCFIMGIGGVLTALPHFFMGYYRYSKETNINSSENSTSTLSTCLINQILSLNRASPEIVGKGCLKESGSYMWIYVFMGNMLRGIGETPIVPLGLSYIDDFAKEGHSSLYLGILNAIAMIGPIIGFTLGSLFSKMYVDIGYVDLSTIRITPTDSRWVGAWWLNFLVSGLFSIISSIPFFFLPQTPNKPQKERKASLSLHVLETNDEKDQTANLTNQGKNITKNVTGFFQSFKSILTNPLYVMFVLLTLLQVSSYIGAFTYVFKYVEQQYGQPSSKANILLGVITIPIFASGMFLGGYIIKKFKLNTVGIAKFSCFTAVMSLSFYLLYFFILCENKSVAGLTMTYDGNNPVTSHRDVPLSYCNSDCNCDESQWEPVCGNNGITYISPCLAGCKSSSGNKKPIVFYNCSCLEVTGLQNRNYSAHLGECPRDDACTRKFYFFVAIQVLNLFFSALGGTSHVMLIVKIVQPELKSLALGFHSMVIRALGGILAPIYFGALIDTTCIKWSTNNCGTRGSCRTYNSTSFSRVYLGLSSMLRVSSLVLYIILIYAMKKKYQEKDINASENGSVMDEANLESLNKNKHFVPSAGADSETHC
The experiment in a line: OATP1B1 inhibition. The format is in vitro ADME.

The nature of data set [10]: Physicochemical input parameters.
Data set [11] concerns the target P-gp (Homo sapiens, UniProt P08183). The experiment in a line: P-gp inhibition in P-gp-transfected cell monolayers. In kind it is in vitro ADME.
In data set [12] the target is T3, BCRP (Homo sapiens, UniProt Q9UNQ0).
T3 sequence (Q9UNQ0 1-655): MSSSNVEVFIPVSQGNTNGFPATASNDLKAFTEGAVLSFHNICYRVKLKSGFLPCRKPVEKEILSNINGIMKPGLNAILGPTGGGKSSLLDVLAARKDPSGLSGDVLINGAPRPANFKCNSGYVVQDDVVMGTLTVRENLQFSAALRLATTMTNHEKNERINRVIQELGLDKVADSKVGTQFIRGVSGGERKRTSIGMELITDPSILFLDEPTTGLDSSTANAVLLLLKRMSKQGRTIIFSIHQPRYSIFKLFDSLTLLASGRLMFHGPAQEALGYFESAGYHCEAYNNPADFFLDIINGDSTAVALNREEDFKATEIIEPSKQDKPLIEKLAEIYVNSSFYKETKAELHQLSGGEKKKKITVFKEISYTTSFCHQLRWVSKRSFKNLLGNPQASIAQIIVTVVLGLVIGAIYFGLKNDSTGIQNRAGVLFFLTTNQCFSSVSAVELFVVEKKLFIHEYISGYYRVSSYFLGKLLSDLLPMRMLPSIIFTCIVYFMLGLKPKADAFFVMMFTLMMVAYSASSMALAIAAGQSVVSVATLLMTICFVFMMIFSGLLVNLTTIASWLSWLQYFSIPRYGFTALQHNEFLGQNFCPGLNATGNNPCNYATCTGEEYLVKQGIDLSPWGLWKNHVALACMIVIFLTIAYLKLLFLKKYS
The experiment in a line: BCRP inhibition in BCRP-transfected cell monolayers. In kind it is in vitro ADME.

The nature of data set [13]: Clinical drug-drug interaction studies. In kind it is in vivo, human.
The conditions of data set [14]: cited from earlier work. This is another data set of the same source.
For data set [15], the target named is T4, CYP2C8 (Homo sapiens, UniProt P10632).
T4 sequence (P10632 1-490): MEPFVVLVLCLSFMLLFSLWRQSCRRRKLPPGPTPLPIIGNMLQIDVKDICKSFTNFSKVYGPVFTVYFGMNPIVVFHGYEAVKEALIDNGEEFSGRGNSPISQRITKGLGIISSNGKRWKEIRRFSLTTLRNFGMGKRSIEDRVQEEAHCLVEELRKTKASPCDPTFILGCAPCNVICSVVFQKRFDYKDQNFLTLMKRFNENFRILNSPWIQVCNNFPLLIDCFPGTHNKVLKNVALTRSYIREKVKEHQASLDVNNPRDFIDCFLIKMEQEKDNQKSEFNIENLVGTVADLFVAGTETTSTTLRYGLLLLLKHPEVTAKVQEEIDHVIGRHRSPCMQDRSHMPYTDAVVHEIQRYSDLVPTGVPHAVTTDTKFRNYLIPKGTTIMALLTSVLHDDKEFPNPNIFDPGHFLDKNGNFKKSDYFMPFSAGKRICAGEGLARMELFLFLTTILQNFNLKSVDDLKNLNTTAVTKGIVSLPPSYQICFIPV
The experiment in a line: CYP2C8 inhibition. In kind it is in vitro ADME.

Data set [16] deals with T1, CYP3A4. In kind it is in vitro ADME. To be noted: percent compound remaining after 60 min in presence of NADPH.
In data set [17] the test system is other CYP isoforms. The experiment in a line: In vitro metabolism of [14C]-ziritaxestat by CYP isoforms. In kind it is in vitro ADME. The note with it: human, CYP isoforms other than CYP3A4, 60 min.
Data set [18] has as its target T5, OATP1B3 (Homo sapiens, UniProt Q9NPD5).
T5 sequence (Q9NPD5 1-702): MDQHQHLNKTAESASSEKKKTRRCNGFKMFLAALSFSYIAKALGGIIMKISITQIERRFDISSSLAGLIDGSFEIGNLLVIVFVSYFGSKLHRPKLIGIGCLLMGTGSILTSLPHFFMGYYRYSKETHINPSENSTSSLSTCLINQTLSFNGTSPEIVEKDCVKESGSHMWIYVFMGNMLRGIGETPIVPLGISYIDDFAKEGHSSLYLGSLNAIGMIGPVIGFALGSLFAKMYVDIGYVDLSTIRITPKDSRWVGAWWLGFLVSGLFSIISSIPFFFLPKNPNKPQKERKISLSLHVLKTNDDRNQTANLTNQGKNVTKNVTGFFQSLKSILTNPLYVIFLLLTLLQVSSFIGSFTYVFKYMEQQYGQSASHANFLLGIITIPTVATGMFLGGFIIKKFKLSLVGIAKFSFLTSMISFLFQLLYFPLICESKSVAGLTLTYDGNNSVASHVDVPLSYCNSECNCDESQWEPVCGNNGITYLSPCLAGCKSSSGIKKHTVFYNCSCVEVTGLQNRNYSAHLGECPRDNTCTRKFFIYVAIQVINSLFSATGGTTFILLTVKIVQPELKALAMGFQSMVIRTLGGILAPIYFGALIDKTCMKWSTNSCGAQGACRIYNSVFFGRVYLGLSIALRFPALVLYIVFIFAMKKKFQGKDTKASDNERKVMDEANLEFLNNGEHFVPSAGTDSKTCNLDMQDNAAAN
The data set can be described thus: OATP1B3 inhibition. In kind it is in vitro ADME.

For data set [19] the following is noted: cited from earlier work. This is another data set of the same source.
The target in data set [20] is T1, CYP3A4. The note with it: data on file.
Setting [21] is: pravastatin probe verification, interaction with gemfibrozil (OATP1B1 inhibitor).

T1 sequence (P08684 whole entry): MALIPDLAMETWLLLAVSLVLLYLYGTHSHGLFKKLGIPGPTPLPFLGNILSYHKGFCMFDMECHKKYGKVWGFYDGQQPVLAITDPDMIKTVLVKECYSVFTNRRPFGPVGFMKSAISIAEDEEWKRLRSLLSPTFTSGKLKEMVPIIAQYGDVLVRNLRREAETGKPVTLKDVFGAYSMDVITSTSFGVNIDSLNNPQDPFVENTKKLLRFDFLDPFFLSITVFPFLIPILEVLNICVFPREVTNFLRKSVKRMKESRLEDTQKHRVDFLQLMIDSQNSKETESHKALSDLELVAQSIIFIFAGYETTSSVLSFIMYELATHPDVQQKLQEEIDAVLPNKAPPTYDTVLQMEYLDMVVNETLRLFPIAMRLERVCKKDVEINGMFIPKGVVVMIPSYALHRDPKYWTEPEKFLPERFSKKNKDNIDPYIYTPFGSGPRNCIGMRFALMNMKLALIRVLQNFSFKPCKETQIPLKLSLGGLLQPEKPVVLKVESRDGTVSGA
Chain of CYP2C9 (P11712 whole entry): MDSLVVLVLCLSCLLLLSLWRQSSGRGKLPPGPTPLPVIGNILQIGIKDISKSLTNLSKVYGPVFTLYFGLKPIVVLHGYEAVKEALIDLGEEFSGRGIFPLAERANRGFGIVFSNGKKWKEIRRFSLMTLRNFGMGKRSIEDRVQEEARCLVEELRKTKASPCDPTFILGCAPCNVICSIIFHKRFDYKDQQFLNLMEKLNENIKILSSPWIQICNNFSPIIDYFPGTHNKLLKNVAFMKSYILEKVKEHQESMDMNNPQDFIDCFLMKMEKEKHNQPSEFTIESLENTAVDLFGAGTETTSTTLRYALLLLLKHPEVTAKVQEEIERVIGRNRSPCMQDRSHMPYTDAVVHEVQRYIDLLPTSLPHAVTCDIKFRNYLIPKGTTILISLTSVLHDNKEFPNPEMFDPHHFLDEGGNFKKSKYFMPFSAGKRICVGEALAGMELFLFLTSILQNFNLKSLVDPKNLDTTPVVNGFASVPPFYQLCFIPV
Chain of P-gp (P08183 whole entry): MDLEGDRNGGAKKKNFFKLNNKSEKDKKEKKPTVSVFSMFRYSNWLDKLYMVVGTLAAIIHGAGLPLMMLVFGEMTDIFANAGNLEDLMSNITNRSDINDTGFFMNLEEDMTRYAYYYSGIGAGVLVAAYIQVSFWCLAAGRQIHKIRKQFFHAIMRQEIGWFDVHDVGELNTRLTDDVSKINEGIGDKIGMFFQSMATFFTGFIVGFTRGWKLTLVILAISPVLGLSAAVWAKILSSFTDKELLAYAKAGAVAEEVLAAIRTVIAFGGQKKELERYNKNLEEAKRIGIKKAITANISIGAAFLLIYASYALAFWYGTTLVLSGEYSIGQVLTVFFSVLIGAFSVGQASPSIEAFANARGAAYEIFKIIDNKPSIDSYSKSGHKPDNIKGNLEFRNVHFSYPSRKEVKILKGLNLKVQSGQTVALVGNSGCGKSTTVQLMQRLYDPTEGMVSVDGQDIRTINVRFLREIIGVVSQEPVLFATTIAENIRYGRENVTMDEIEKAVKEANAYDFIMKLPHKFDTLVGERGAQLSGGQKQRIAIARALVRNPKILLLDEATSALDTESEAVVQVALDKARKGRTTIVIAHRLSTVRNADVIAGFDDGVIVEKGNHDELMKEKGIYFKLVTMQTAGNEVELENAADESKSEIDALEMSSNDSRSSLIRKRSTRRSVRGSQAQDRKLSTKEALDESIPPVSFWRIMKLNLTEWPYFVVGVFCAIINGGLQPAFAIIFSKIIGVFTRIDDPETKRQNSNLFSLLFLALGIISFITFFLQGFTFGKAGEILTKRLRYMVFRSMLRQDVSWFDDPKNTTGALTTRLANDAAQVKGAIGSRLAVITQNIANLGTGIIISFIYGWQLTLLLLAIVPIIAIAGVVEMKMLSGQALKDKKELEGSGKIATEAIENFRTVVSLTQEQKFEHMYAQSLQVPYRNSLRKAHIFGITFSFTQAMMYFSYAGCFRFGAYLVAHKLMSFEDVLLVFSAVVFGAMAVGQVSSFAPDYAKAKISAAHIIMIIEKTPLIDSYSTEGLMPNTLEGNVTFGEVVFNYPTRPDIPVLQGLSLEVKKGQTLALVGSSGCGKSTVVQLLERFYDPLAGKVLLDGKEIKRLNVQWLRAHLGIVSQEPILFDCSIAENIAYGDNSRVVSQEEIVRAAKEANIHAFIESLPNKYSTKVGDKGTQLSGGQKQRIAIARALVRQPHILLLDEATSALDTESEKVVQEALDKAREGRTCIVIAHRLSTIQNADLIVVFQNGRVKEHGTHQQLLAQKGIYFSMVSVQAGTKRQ

Take `CC(=O)N1CCN(c2ccc(OCC3COC(Cn4ccnc4)(c4ccc(Cl)cc4Cl)O3)cc2)CC1` (stereo not shown) [Ketoconazole]: the “observed-to-predicted AUC ratio” value in data set [1] (efavirenz verification with ketoconazole as victim) is 0.90.
Regarding `CC[C@H](C)C(=O)O[C@H]1C[C@H](O)C=C2C=C[C@H](C)[C@H](CC[C@@H](O)C[C@@H](O)CC(=O)O)[C@H]21` [Pravastatin, pravastatin], in [1] (setting [21]), the “observed-to-predicted AUC ratio” value is on record as 1.03 and the “observed-to-predicted Cmax ratio” value is reported as 1.10.
The term EC50 denotes the concentration giving half of the maximal effect. For the compound `O=C1Nc2ccc(Cl)cc2[C@@](C#CC2CC2)(C(F)(F)F)O1` [Efavirenz], in [2] (read-out: EC50 induction CYP3A4), the EC50 was […]. In addition, the “Emax induction CYP3A4” value in data set [2] was […]. The “Emax induction CYP2B6” value in data set [3] was 5.76.
The Papp is the rate of passage across a membrane or cell layer, normalised by area and donor concentration. Broadly, the IC50 is the concentration that gives 50% inhibition. Low values mean greater potency, high ones weaker potency. A word on the fraction unbound: it is the share of the substance not bound to proteins or other matrix. Higher therefore signals weak binding. A word on the solubility: it is the dissolved amount per volume that the medium holds. A low value points to a poorly soluble substance. For orientation: logD means the decadic logarithm of the distribution of all forms, ionised or not, between an organic phase and buffer at a given pH. A word on the pKa: it is the negative logarithm of the acid dissociation constant. A higher pKa goes with a group that holds its proton tightly. In general, Ki refers to a dissociation constant, usually derived from enzyme kinetics or from competition with a known ligand. Low values mean higher affinity, high ones lower affinity. For the compound `CCc1nc2c(C)cc(N3CCN(CC(=O)N4CC(O)C4)CC3)cn2c1N(C)c1nc(-c2ccc(F)cc2)c(C#N)s1` [Ziritaxestat, ziritaxestat], the figures for the Papp in [4] and in data set [6] were 120 ×10⁻⁶ cm/s and 47 ×10⁻⁶ cm/s, respectively. The fraction absorbed entry in data set [5] (600 mg dose) is “at least 86%”. Moreover, in data set [5], the hepatic first-pass metabolism is 9%. Also, the “volume of distribution at steady state from observed data, mean [SD]” value in [5] is 23 [11] L. Also, in [5] (single p.o. 600 mg [14C]-ziritaxestat, healthy male subjects), the “renal excretion of total radioactivity” value was < 7%. The IC50 is 3.7 µM in [7]; 13.1 µM in data set [8]; > 40 µM in data set [11]; > 40 µM in [12]; 7.04 µM in data set [18]. The fraction unbound was 0.24 in [8] (human) and 0.52 in [15] (human). For the same compound, the “inhibitory potential for OATP1B1 (in words)” value in data set [9] is “weak”. The solubility in data set [10] (FaSSIF) turned out to be 540 µg/mL (≈ 917 µM); in data set [10] (buffer, pH 7.5, aqueous buffer), 66 µg/mL (≈ 112 µM). The logD in [10] (octanol/water, pH 8.25) came to 3.81. The pKa in data set [10] (pKa1 (base)) amounted to 4.99; in data set [10] (pKa2 (base)) it was 5.89. For the same compound, the “classification as CYP3A4 substrate” value in data set [13] (human, in vivo) is given as “moderately sensitive CYP3A4 substrate”. Besides, the “AUC0–∞ ratio, observed DDI ratio” value in [13] (ziritaxestat 600 mg SD with/without voriconazole 800 mg SD, data on file) was 4.0. Also, in [14] (200 mg and 600 mg daily doses vs placebo), the “mortality (in words)” value is “increased mortality compared with placebo”. Further, the “efficacy in IPF (in words)” value in [14] (200 mg and 600 mg daily doses) is “failed to demonstrate efficacy”. This compound also gave a Ki in data set [15] of 0.753 µM. Moreover, the “time-dependent inhibition of CYP2C8 (in words)” value in data set [15] was “strong”. The figures for the “[14C]-ziritaxestat metabolized by CYP3A4” value in data set [16] (10 μM) and in data set [16] (100 μM) were 84.5% and 28.6%, respectively. Moreover, the “contribution of other CYP isoforms to metabolism (maximum)” value in data set [17] was ≤ 2.1%.
Take `COC(=O)c1ccc2c(c1)NC(=O)/C2=C(\Nc1ccc(N(C)C(=O)CN2CCN(C)CC2)cc1)c1ccccc1` [Nintedanib, nintedanib]: in data set [19], the “reduction of nintedanib exposure by pirfenidone” value is listed as 1.5 fold. In addition, the “contribution of CYP3A4 to metabolism” value in data set [20] is given as ~ 7%. Also, in data set [13] (clinical DDI study, data on file), the “increase in nintedanib exposure with ziritaxestat” value was “approximately two‐fold”.
